One assay concerns the target T1, M1 muscarinic receptor (Homo sapiens, UniProt P11229).
T1 construct: expressed in transfected cells; host or cells: CHO (M1-CHO)
T1 sequence (P11229 1-460): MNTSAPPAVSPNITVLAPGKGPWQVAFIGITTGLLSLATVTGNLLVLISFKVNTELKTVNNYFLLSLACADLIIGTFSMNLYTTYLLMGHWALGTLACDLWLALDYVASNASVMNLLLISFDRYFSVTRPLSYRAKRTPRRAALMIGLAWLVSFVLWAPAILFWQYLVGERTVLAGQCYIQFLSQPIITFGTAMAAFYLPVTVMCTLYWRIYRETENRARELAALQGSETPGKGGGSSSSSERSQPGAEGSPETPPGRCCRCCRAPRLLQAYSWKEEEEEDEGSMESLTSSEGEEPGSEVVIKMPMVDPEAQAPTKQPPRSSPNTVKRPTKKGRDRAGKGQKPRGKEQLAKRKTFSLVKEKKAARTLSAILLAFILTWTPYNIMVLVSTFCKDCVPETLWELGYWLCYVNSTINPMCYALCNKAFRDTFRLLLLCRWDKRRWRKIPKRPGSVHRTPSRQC
In words: Functional mobilization of intracellular calcium (FLIPR), M1-CHO cells. In kind it is cell-based. As to conditions: for Emax: 100% efficacy is the maximum response obtained using Carbachol as a control; for M1 Activity: M1-CHO cells, FLIPR calcium mobilization. The essentials:
(§1)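 Calcium flux recorded 60 s (ex 488, em 540 nm) in dye-loaded M1- or M4-CHO cells in pH 7.4 buffer with 1 mM probenecid. Inhibition measured against carbachol EC80 after 15 min compound pre-incubation or co-addition; agonism measured by compound addition alone. Final DMSO 0.5%.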

In the next assay the target is T2, M4 muscarinic receptor (Homo sapiens, UniProt P08173).
T2 construct: expressed in transfected cells; host or cells: CHO (M4-CHO)
T2 sequence (P08173 1-479): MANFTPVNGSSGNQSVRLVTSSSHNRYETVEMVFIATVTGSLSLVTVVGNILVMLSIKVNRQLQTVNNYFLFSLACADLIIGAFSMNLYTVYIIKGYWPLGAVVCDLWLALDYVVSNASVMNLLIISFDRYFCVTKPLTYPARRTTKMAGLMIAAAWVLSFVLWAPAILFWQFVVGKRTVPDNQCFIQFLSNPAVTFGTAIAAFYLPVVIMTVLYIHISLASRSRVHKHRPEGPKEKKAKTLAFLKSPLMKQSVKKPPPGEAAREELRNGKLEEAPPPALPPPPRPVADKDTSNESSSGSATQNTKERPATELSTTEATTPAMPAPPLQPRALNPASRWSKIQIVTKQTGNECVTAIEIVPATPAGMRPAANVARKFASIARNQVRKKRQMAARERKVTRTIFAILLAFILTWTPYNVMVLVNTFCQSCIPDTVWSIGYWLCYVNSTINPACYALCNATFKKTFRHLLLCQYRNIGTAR
In words: Functional mobilization of intracellular calcium (FLIPR), M4-CHO cells. In kind it is cell-based. As to conditions: for Emax: 100% efficacy is the maximum response obtained using Carbachol as a control; for M4 Activity: M4-CHO cells, FLIPR calcium mobilization. In a few lines:
as §1

The structures appear in SMILES notation. Where a name gives a salt, the structure may show the parent alone. Where only a bound is given, the exact number is not on record here.

`O=C(OC1CCC1)N1Cc2ccccc2C2(CCN(C3CC4CCC(C3)N4C(=O)OC3CCC3)CC2)C1` (centres unmarked) [compound 194]: on M1 muscarinic receptor, the Emax was in the range of 25 to 100% and the “M1 Activity” value is “+++ (activity was measured to be less than 1.0 μM)”. For the same compound, on M4 muscarinic receptor, the Emax was 25 to 100% and the “M4 Activity” value is on record as “+++ (activity was measured to be less than 1.0 μM)”.
As for `CC(C)OC(=O)N1Cc2ccccc2C2(CCN(C3CC4CCC(C3)N4C(=O)O[C@@H]3CCOC3)CC2)C1` (some centres unmarked) [compound 195], at M1 muscarinic receptor, the Emax lay in the range of 25 to 100% and the “M1 Activity” value is “+++ (activity was measured to be less than 1.0 μM)”. Moreover, on M4 muscarinic receptor, the Emax was in the range of 25 to 100% and the “M4 Activity” value is recorded as “+++ (activity was measured to be less than 1.0 μM)”.
Take `CCON=C1CCC(N2CCC3(CC2)CN(C(C)=O)Cc2ccccc23)CC1` (centres unmarked) [compound 196, 1-(1′-(4-(ethoxyimino)cyclohexyl)-1H-spiro[isoquinoline-4,4′-piperidine]-2(3H)-yl)ethanone]: on M1 muscarinic receptor, the Emax is 25 to 100% and the “M1 Activity” value is listed as “+++ (activity was measured to be less than 1.0 μM)”. Further, on M4 muscarinic receptor, the Emax lay in the range of 25 to 100% and the “M4 Activity” value is recorded as “+++ (activity was measured to be less than 1.0 μM)”.
On to `CCOC(=O)N1C2CCC1CC(N1CCC3(CC1)CN(C(C)=O)Cc1ccccc13)C2` (centres unmarked) [compound 197, ethyl 3-(2-acetyl-2,3-dihydro-1H-spiro[isoquinoline-4,4′-piperidine]-1′-yl)-8-azabicyclo[3.2.1]octane-8-carboxylate], for which, at M1 muscarinic receptor, the Emax was in the range of 25 to 100% and the “M1 Activity” value is listed as “+++ (activity was measured to be less than 1.0 μM)”. For the same compound, on M4 muscarinic receptor, the Emax lay within 25 to 100% and the “M4 Activity” value is “+++ (activity was measured to be less than 1.0 μM)”.
As to `CCOC(=O)N1CCC(CN2CCC3(CC2)CN(C(C)=O)Cc2ccccc23)CC1` [compound 198, Ethyl 4-((2-acetyl-2,3-dihydro-1H-spiro[isoquinoline-4,4′-piperidine]-1′-yl)methyl)piperidine-1-carboxylate hydrochloride], at M1 muscarinic receptor, the Emax lay within 25 to 100% and the “M1 Activity” value is “+++ (activity was measured to be less than 1.0 μM)”. Moreover, on M4 muscarinic receptor, the Emax was in the range of 25 to 100% and the “M4 Activity” value is given as “+++ (activity was measured to be less than 1.0 μM)”.
On to `CC(=O)N1Cc2ccccc2C2(CCN(Cc3ccccc3F)CC2)C1` [compound 199], for which, on M1 muscarinic receptor, the Emax was < 25% and the “M1 Activity” value was “+ (activity was measured to be greater than 5.0 μM)”. Besides, on M4 muscarinic receptor, the Emax was in the range of 25 to 100% and the “M4 Activity” value is listed as “+ (activity was measured to be greater than 5.0 μM)”.
`CCOC(=O)N1C2CCC1CC(N1CCC3(CC1)CN(S(=O)(=O)c1sc(NC(C)=O)nc1C)Cc1ccccc13)C2` (centres unmarked) [compound 200]: at M1 muscarinic receptor, the Emax was in the range of 25 to 100% and the “M1 Activity” value is on record as “+++ (activity was measured to be less than 1.0 μM)”. At M4 muscarinic receptor, the Emax lay within 25 to 100% and the “M4 Activity” value is “+++ (activity was measured to be less than 1.0 μM)”.
For the compound `CCOC(=O)N1C2CCC1CC(N1CCC3(CC1)CN(S(C)(=O)=O)Cc1ccccc13)C2` (centres unmarked) [compound 201], at M1 muscarinic receptor, the maximum response (Emax) is 25 to 100% and the “M1 Activity” value is given as “+++ (activity was measured to be less than 1.0 μM)”. Also, on M4 muscarinic receptor, the Emax was 25 to 100% and the “M4 Activity” value was “+++ (activity was measured to be less than 1.0 μM)”.
`CCOC(=O)N1CCC(N2CCC3(CC2)CN(C(=O)OC2CCC2)Cc2ccccc23)CC1` [compound 202]: at M1 muscarinic receptor, the Emax fell in the range of 25 to 100% and the “M1 Activity” value is “+++ (activity was measured to be less than 1.0 μM)”. On M4 muscarinic receptor, the Emax is 25 to 100% and the “M4 Activity” value is recorded as “+++ (activity was measured to be less than 1.0 μM)”.
As for `CCOC(=O)N1C2CCC1CC(N1CCC3(CC1)CN(C(=O)c1sc(C)nc1C)Cc1ccccc13)C2` (centres unmarked) [compound 203], on M1 muscarinic receptor, the Emax lay within 25 to 100% and the “M1 Activity” value is recorded as “+++ (activity was measured to be less than 1.0 μM)”. On M4 muscarinic receptor, the Emax fell in the range of 25 to 100% and the “M4 Activity” value is listed as “+++ (activity was measured to be less than 1.0 μM)”.
Turning to `CCOC(=O)N1CCC(N2CCC3(CC2)CN(C(=O)N(C)C)Cc2ccccc23)CC1` [compound 204], on M1 muscarinic receptor, the Emax lay in the range of 25 to 100% and the “M1 Activity” value is recorded as “+++ (activity was measured to be less than 1.0 μM)”. At M4 muscarinic receptor, the maximum response (Emax) lay within 25 to 100% and the “M4 Activity” value is recorded as “+++ (activity was measured to be less than 1.0 μM)”.

In general, Emax refers to the size of the effect at its maximum, as opposed to the concentration needed.

These data come from patent US7863449B2, “Modulators of muscarinic receptors” (Vertex Pharmaceuticals Incorporated, priority 2004, dated 2011).
